According to publication PMC8772772, “Enantioselective Synthesis and Pharmacological Evaluation of Aza-CGP37157–Lipoic Acid Hybrids for the Treatment of Alzheimer’s Disease” (Antioxidants, 2022):
Several values for one entry are separate records, joined by “and”; a condition that tells them apart may be missing. Equal entries are not always repeated.

Assays:
[1] = DPPH reduction assay, antioxidant capacity; settings: DPPH 100 µM, 30 min, mean ± SEM; for DPPH Scavenging at 100 µM, %: compound 100 µM; for DPPH Scavenging at 1mM, %: compound 1 mM
Description: Antioxidant capacity was evaluated by using described procedure slightly modified. Compounds (0.1 and 1 mM, final concentration) were diluted in assay media (EtOH/H2O, 70:30) and mixed with 100 μL of DPPH (SigmaAldrich, D9132, Madrid, Spain) solution (100 μM final concentration) in a clear 96-multiwell plate. Final solution was kept in dark for 30 min, and absorbance of DPPH was measured in a SpectroStar Nano plate-reader (BMG Labtech, Ortenberg, Germany) in duplicate at […]. All experiments included a blank (assay media), control (DPPH 100 μM) and a positive control (ascorbic acid, 100 μM). Data were evaluated as % absorbance (Abs) reduction of control after subtracting blank absorbance. % DPPH reduction = [100 − ((Abssample − Absblank) × 100]/Abscontrol
Initially, we evaluated the free-radical-scavenging capacity of derivatives 7a–d in the DPPH assay, based on the capacity of the tested derivatives to react with the 2,2-diphenyl-1-picrylhydracil radical to generate a non-radical derivate. Hybrid derivatives 7a–d were evaluated at two different concentrations (0.1 and 1 mM), considering the activities of previously reported racemic derivatives. […] Ascorbic acid was used as a positive control, and CGP37157, rac-3a and (rac,R)-3b were included as references. […] Those results are similar to those obtained for racemic mixtures 3a and 3b and a mixture of (S,R)-7b and (R,R)-7d obtained from rac-3 and R-lipoic acid.

[2] = test system: NRF2; experiment: NRF2 induction, luciferase expression in AREc32 cell line; assay type: cell-based; settings: for CD (concentration required to double the specific luciferase activity): AREc32 cells, 0.3, 3, 10 and 30 μM (LA: 0.1–0.6 mM), mean ± SEM
Description: AREc32 cell line was kindly shared by Professor Roland Wolf (University of Dundee, UK). AREc32 cells were maintained in DMEM/glutamax/high glucose (Gibco, 61965-06, Madrid, Spain), supplemented with 1% penicillin–streptomycin (10,000 units) (SigmaAldrich, P4333, Madrid, Spain), geneticin (0.8 mg/mL) (Gibco, 11811-031) and 10% FBS (Gibco, 10270106), at 37 °C in a 5% CO2 air atmosphere. Cells were used from passage 4 to 18, and mycoplasma contamination was tested every 4 weeks. AREc32 cells were seeded in 96-well white plates (2 × 10^4 cells/well) for 24 h. Thereafter, cells were treated with each compound (0.3, 3, 10 and 30 µM) in duplicate for 24 h. Non-treated cells were included as basal luciferase expression and tert-butylhydroquinone (TBHQ, 10 μM) as positive control in each plate. Luciferase expression was evaluated by using the Luciferase Assay System (Promega, E1483, Madrid, Spain) by luminescence in an Orion II microplate luminometer (Berthold, Germany). Luciferase activity increase was normalized to basal conditions considered as 1. CD values (concentration required to double the luciferase activity) were calculated from dose–response curves of luciferase fold induction vs. compound concentration, fitted by non-linear regression and data interpolated to value 2.
To evaluate the influence of both stereogenic centers in the NRF2 induction capacity of aza-CGP37157-LA hybrids, we used the AREc32 cell line model by analyzing luciferase expression upon treatment with NRF2 inducers. AREc32 cells were exposed to increasing concentrations of tested compounds 7a–d (0.3, […], 10 and 30 μM) during 24 h; thereafter, luciferase expression was evaluated by luminescent assay to calculate the corresponding CD value (concentration to double luciferase expression). […] TBHQ was included as a positive control, and CGP37157, S- and R-LA, rac-3a and (rac,R)-3b and precursors derivatives (R-6 and S-6) were included for comparative purposes. […] Once R-LA is reduced, it might activate the phase II antioxidant response by acting as pro-oxidant over key Cys residues at KEAP1 to generate the corresponding lipoyl-cystinyl disulphide.

[3] = test system: SH-SY5Y neuroblastoma cells; experiment: Neuroprotection against okadaic acid hyperphosphorylation in SH-SY5Y cells (MTT); assay type: cell-based, human; settings: for % Survival / % Protection: compound 1 μM 24 h, then compound + OA 24 h; for % Survival: basal = 100, OA alone 54.7; for % Protection: n.p = compound does not protect cells
Description: Human neuroblastoma SH-SY5Y cells were plated in 96-well clear multi-well plates (6 × 10^4 cells/well). The potential neuroprotective activity of compounds against OS was evaluated using the rotenone (30 μM) (SigmaAldrich, R8875) and oligomycin A (10 μM) (SigmaAldrich, 75351) (R/O) toxic mixture. Neuroprotection activity against Tau hyperphosphorylation was evaluated by using the okadaic acid (20 nM) model. Cells were pre-incubated with each compound (1 µM) for 24 h, and then treatments were removed and cells were incubated with compounds (1 µM) in the presence the corresponding toxic for additional 24 h. At the end of the experiments, viability was determined by the MTT method. Data were normalized from cell death induced by the toxic stimuli (considered as 100% cell death). Then, the protection percentages were calculated by subtracting from the death induced by toxic stimuli, the death in the presence of the compound.
The tetrazolium ring of MTT can be cleaved by active dehydrogenases to produce a formazan precipitate. At the end of the experiments, MTT (SigmaAldrich, M2003) stock solution was added to each well to achieve a final concentration of 0.5 mg/mL. Cells were incubated for 2 h. Thereafter, culture media was removed, and DMSO was added to each well to dissolve the formazan precipitate. Finally, absorbance was measured in a microplate reader (SPECTROstar nano, BMG Labtech) at 570 nm. Absorbance obtained in basal conditions was considered as 100% cell viability.
Considering these precedents, we envisaged the evaluation of our compounds in a hyperphosphorylation toxicity model induced by okadaic acid (OA), a protein phosphatase 2A inhibitor [58, 59]. This inhibition causes an imbalance between kinase and phosphatase action, leading to hyperphosphorylation of proteins, in particular, Tau. Thus, treatment of SH-SY5Y neuroblastoma cells with OA is a well-stablished model of Tau hyperphosphorylation. Similarly, to the method used for the OS model, we selected a pre-incubation/co-incubation protocol to evaluate the potential neuroprotection capacity related to the NRF2 induction/antioxidant properties of the compounds. Cells were treated with compounds (±)-6, R-6, S-6 or 7a–d (1 µM) during 24 h; thereafter, cells were co-treated with compounds (1 µM) and OA (20 nM) for a further 24 h. Melatonin was also included as a positive control. Finally, cellular viability was evaluated by the MTT method. […] Finally, the (R,S)-7c diastereomer was not able to afford any protection, a result that might be in line with its low NRF2 induction capacity.

Row | Compound | DPPH Scavenging at 100 µM, % [1] [%] | DPPH Scavenging at 1mM, % [1] | luciferase activity increase at 30 μM ([2]; AREc32 cells, 24 h, vs basal) | CD (concentration required to double the specific luciferase activity) ([2]; 24 h) | neuroprotective capacity relative to (S,R)-7b, folds less potent ([3]; OA model, 1 µM) [folds] | % Survival [3] [%] | % Protection [3] | luciferase activity increase at 10 μM ([2]; AREc32 cells, 10 μM, 24 h, vs basal) | NRF2 induction potency relative to (S,S)-7a ([2]; ratio of CD values) [fold]
1 | O=C1CN(CCOC(=O)CCCC[C@@H]2CCSS2)[C@@H](c2ccccc2Cl)c2cc(Cl)ccc2N1 [(R,R)-7d, 2-((R)-7-Chloro-5-(2-chlorophenyl)-2-oxo-1,2,3,5-tetrahydro-4H-benzo[e][1,4]diazepin-4-yl)ethyl 5-((R)-1,2-dithiolan-3-yl)pentanoate] | 8.66 ± 3.0 | 23.3 ± 3.5% | significantly increase luciferase activity | over 30 μM | 2 | 63.3 ± 8.7 | 21% | – | –
2 | O=C1CN(CCOC(=O)CCCC[C@@H]2CCSS2)[C@H](c2ccccc2Cl)c2cc(Cl)ccc2N1 [(R,S)-7c, 2-((S)-7-Chloro-5-(2-chlorophenyl)-2-oxo-1,2,3,5-tetrahydro-4H-benzo[e][1,4]diazepin-4-yl)ethyl 5-((R)-1,2-dithiolan-3-yl)pentanoate] | 13.6 ± 3.8 | 35.9% and 35.9 ± 1.9% | significantly increase luciferase activity | over 30 μM | – | 50.7 ± 15.6 | not protective and n.p | significantly increase luciferase activity | –
3 | O=C1CN(CCOC(=O)CCCC[C@H]2CCSS2)[C@H](c2ccccc2Cl)c2cc(Cl)ccc2N1 [(S,S)-7a, 2-((S)-7-Chloro-5-(2-chlorophenyl)-2-oxo-1,2,3,5-tetrahydro-4H-benzo[e][1,4]diazepin-4-yl)ethyl 5-((S)-1,2-dithiolan-3-yl)pentanoate] | 10.9 ± 3.5 | 30.3 ± 1.6% | – | 26.5 ± 1.3 µM | – | 63.2 ± 7.6 | 21.2% | – | –
4 | O=C1CN(CCOC(=O)CCCC[C@H]2CCSS2)[C@@H](c2ccccc2Cl)c2cc(Cl)ccc2N1 [(S,R)-7b, 2-((R)-7-Chloro-5-(2-chlorophenyl)-2-oxo-1,2,3,5-tetrahydro-4H-benzo[e][1,4]diazepin-4-yl)ethyl 5-((S)-1,2-dithiolan-3-yl)pentanoate] | 8.46 ± 3.8 | 32.0 ± 1.7% | – | 11.9 ± 1.3 µM | – | 70.6 ± 10.3 | 41.9% and 40.2% | – | 2.2
